From patent EP0134485A2, “5-Cyclopropyl-5,8-dihydro-8-oxo-1,3-dioxolo-(4,5-g) quinoline-7-carboxylic acid, process for its preparation and bactericidal agent containing it” (BAYER AG, priority 1983, dated 1985)
Converted amounts (≈) assume the structure as drawn.

What was measured:
Assay in all cases: Agar dilution test (MIC), Isosensitest medium
Assay type in all cases: cell-based
E. coli 455/7 = conditions: Escherichia coli, strain E. coli 455/7, Denley multipoint inoculator, read-out: MHK
Source text: (§1) In der nachstehenden Tabelle sind die MHK-Werte der erfindungsgemäßen Verbindung angegeben.

Klebsiella 6179 = conditions: strain Klebsiella 6179, Denley multipoint inoculator, read-out: MHK
Source text: as §1

Proteus 8175 = conditions: strain Proteus 8175, Denley multipoint inoculator, read-out: MHK
Source text: as §1

Proteus mir. 8223 = conditions: strain Proteus mir. 8223, Denley multipoint inoculator, read-out: MHK
Source text: as §1

Pseudom. W. = conditions: strain Pseudom. W., Denley multipoint inoculator, read-out: MHK
Source text: as §1

Serratia 16040 = conditions: strain Serratia 16040, Denley multipoint inoculator, read-out: MHK
Source text: as §1

Staph. aur. 133 = conditions: strain Staph. aur. 133, Denley multipoint inoculator, read-out: MHK
Source text: as §1

Streptococc. faec. 9790 = conditions: strain Streptococc. faec. 9790, Denley multipoint inoculator, read-out: MHK
Source text: as §1

O=C(O)c1cn(C2CC2)c2cc3c(cc2c1=O)OCO3 [I, 5-Cyclopropyl-5,8-dihydro-8-oxo-1,3-dioxolo[4,5-g]chinolin-7-carbonsäure]
MIC (E. coli 455/7): 16 µg/mL (≈ 58.6 µM) | MIC (Klebsiella 6179): 0.06 µg/mL (≈ 0.22 µM) | MIC (Proteus 8175): 0.03 µg/mL (≈ 0.11 µM) | MIC (Proteus mir. 8223): 8 µg/mL (≈ 29.3 µM) | MIC (Pseudom. W.): 4 µg/mL (≈ 14.6 µM) | MIC (Serratia 16040): 4 µg/mL (≈ 14.6 µM) | MIC (Staph. aur. 133): 0.25 µg/mL (≈ 0.915 µM) | MIC (Streptococc. faec. 9790): 8 µg/mL (≈ 29.3 µM)
